Reference: US6737383B1, “Herbicidal oxadiazolidines” (priority 1999, dated 2004)

Tests used:
[1] = test system: giant foxtail; experiment: Test B pre/postemergence giant foxtail; format: in vivo, Setaria faberii
Procedure, shortened: (§1)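 Test chemicals in a non-phytotoxic solvent mixture with surfactant were sprayed preemergence onto planted seeds and postemergence onto plants 2 to 18 cm tall (1- to 4-leaf stage). After twelve to sixteen days in a greenhouse, injury was visually rated against untreated controls from 0 (no effect) to 10 (complete control).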

[2] = test system: duck salad; experiment: Test B flood test duck salad; format: in vivo, Heteranthera limosa
Procedure, shortened: (§2)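 Read-out is a visual response score from 0 (no effect) to 10 (complete control), assigned by comparison with untreated controls. Treatment was applied at the 2-leaf stage, and plants stayed in the greenhouse for twelve to sixteen days before scoring.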

[3] = test system: morningglory; experiment: Test B pre/postemergence morningglory; format: in vivo, Ipomoea hederacea
Procedure, shortened: as §1

[4] = test system: rice; experiment: Test B flood test rice; format: in vivo, Oryza sativa
Procedure, shortened: as §2

[5] = Postemergence, Rate 250 g/ha, scale 0 to 10, 0 no effect, 10 complete control
[6] = Postemergence, Rate 1000 g/ha, scale 0 to 10 (0 no effect, 10 complete control)
[7] = Preemergence, Rate 125 g/ha, scale 0 to 10 (0 no effect, 10 complete control)
[8] = Preemergence, Rate 250 g/ha, scale of 0 to 10 where 0 is no effect and 10 is complete control
[9] = Preemergence, Rate 500 g/ha, scale 0 (no effect) to 10 (complete control)
[10] = Rate 125 g/ha, Postemergence, scale 0 to 10, 0 no effect, 10 complete control
[11] = Rate 500 g/ha, Postemergence, 0 to 10 scale (0 no effect, 10 complete control)
[12] = Rate 1000 g/ha, Preemergence, scale 0 to 10 (0 no effect, 10 complete control)
[13] = Rate 125 g/ha, Postemergence section (flood test species), scale 0 to 10, 0 no effect, 10 complete control
[14] = Rate 500 g/ha, Postemergence section of Table B, 0 to 10 scale (0 no effect, 10 complete control)
[15] = flood test, listed under Postemergence, Rate 250 g/ha, scale 0 to 10, 0 no effect, 10 complete control
[16] = Preemergence, Rate 62 g/ha, scale of 0 to 10 where 0 is no effect and 10 is complete control
[17] = Preemergence, Rate 500 g/ha, scale of 0 to 10 where 0 is no effect and 10 is complete control
[18] = Rate 62 g/ha, Postemergence, scale of 0 to 10 where 0 is no effect and 10 is complete control
[19] = Rate 125 g/ha, Postemergence, scale 0 to 10
[20] = Rate 125 g/ha, Preemergence, scale of 0 to 10 where 0 is no effect and 10 is complete control
[21] = Rate 500 g/ha, Postemergence, scale 0 to 10, 0 no effect, 10 complete control
[22] = Rate 62 g/ha, headed Pre-emergence (flood test species), scale 0 to 10 (0 no effect, 10 complete control)
[23] = Rate 125 g/ha, Pre-emergence, flood test species, scale 0 to 10 where 0 is no effect and 10 is complete control
[24] = Rate 250 g/ha, Pre-emergence, flood-test species, scale 0 to 10, 0 is no effect, 10 is complete control
[25] = Rate 500 g/ha, Pre-emergence, flood test species, scale 0 to 10 (0 no effect, 10 complete control)
[26] = Postemergence, Rate 250 g/ha, scale 0 to 10
[27] = Preemergence, Rate 125 g/ha, scale of 0 to 10 where 0 is no effect and 10 is complete control
[28] = Preemergence, Rate 250 g/ha, scale 0 to 10, 0 is no effect, 10 is complete control
[29] = Preemergence, Rate 500 g/ha, scale 0 to 10, 0 is no effect, 10 is complete control
[30] = Rate 62 g/ha, Postemergence, scale 0 to 10, 0 no effect, 10 complete control
[31] = Rate 125 g/ha, Postemergence, scale 0 to 10, 0 is no effect, 10 is complete control
[32] = Rate 62 g/ha, flood test species, Pre-emergence, visual evaluation after twelve to sixteen days
[33] = Rate 125 g/ha, under heading Pre-emergence, flood test species, visual evaluation after twelve to sixteen days
[34] = Rate 250 g/ha, Pre-emergence (flood test species), scale 0 to 10, 0 is no effect, 10 is complete control
[35] = Postemergence, Rate 62 g/ha, scale 0 to 10, 0 is no effect, 10 is complete control
[36] = Preemergence, Rate 62 g/ha, scale 0 to 10 (0 no effect, 10 complete control)
[37] = Rate 500 g/ha, listed under Postemergence (flood test species), scale 0 to 10, 0 no effect, 10 complete control
[38] = Preemergence, Rate 125 g/ha, 0 is no effect, 10 is complete control
[39] = Rate 500 g/ha, Postemergence, scale 0 to 10
[40] = Rate 500 g/ha, headed Pre-emergence (flood test species), scale 0 to 10 (0 no effect, 10 complete control)

SMILES: CC(C)N(C(=O)n1oc(=O)n(-c2ccccc2Cl)c1=O)c1ccc(F)cc1 [Compound 8]
- Giant foxtail plant response rating [1, 5]: 0
- Giant foxtail plant response rating [1, 6]: 4
- Plant response rating, Giant foxtail [1, 7]: 5
- Plant response rating, Giant foxtail [1, 8]: 9
- Giant foxtail plant response rating [1, 9]: 10
- Giant foxtail plant response rating [1, 10]: 0
- Giant foxtail plant response rating [1, 11]: 2
- Plant response rating, Giant foxtail [1, 12]: 10
- Ducksalad plant response rating [2, 6]: 0
- Ducksalad plant response rating [2, 13]: 0
- Ducksalad plant response rating [2, 14]: 0
- Ducksalad plant response rating [2, 15]: 0
- Morningglory plant response rating [3, 5]: 0
- Morningglory plant response rating [3, 6]: 6
- Plant response rating, Morningglory [3, 7]: 0
- Plant response rating, Morningglory [3, 8]: 0
- Morningglory plant response rating [3, 9]: 0
- Morningglory plant response rating [3, 10]: 0
- Morningglory plant response rating [3, 11]: 2
- Plant response rating, Morningglory [3, 12]: 0
- Rice plant response rating [4, 6]: 0
- Rice plant response rating [4, 13]: 0
- Rice plant response rating [4, 14]: 0
- Rice plant response rating [4, 15]: 0

SMILES: COCCOCn1c(=O)on(C(=O)N(c2ccc(F)cc2)C(C)C)c1=O [Compound 220]
- Giant foxtail plant response rating [1, 16]: 9
- Giant foxtail plant response rating [1, 8]: 10
- Plant response rating, Giant foxtail [1, 17]: 10
- Giant foxtail plant response rating [1, 18]: 5
- Giant foxtail plant response rating [1, 19]: 6
- Giant foxtail plant response rating [1, 20]: 9
- Plant response rating (0 to 10; 0 is no effect, 10 is complete control), Giant foxtail ([1]; Rate 250 g/ha, Postemergence): 8
- Giant foxtail plant response rating [1, 21]: 8
- Ducksalad plant response rating [2, 22]: 0
- Ducksalad plant response rating [2, 23]: 0
- Ducksalad plant response rating [2, 24]: 0
- Ducksalad plant response rating [2, 25]: 0
- Morningglory plant response rating [3, 16]: 0
- Morningglory plant response rating [3, 8]: 1
- Plant response rating, Morningglory [3, 17]: 6
- Morningglory plant response rating [3, 18]: 5
- Morningglory plant response rating [3, 19]: 5
- Morningglory plant response rating [3, 20]: 0
- Plant response rating (0 to 10; 0 is no effect, 10 is complete control), Morningglory ([3]; Rate 250 g/ha, Postemergence): 8
- Morningglory plant response rating [3, 21]: 8
- Rice plant response rating [4, 22]: 0
- Rice plant response rating [4, 23]: 0
- Rice plant response rating [4, 24]: 0
- Rice plant response rating [4, 25]: 0

SMILES: CC(C)N(C(=O)n1oc(=O)n(C(C)C#N)c1=O)c1ccc(Cl)cc1 (centres unmarked) [Compound 451]
- Giant foxtail plant response rating [1, 26]: 3
- Giant foxtail plant response rating ([1]; Postemergence, Rate 500 g/ha, scale of 0 to 10 where 0 is no effect and 10 is complete control): 7
- Plant response rating, Giant foxtail [1, 16]: 0
- Plant response rating, Giant foxtail [1, 27]: 0
- Giant foxtail plant response rating [1, 28]: 4
- Giant foxtail plant response rating [1, 29]: 7
- Giant foxtail plant response rating [1, 30]: 0
- Giant foxtail plant response rating [1, 31]: 0
- Plant response rating, Ducksalad (0 to 10 scale, 0 is no effect, 10 is complete control) [2, 32]: 0
- Ducksalad plant response rating (0 to 10 scale, 0 is no effect, 10 is complete control) [2, 33]: 0
- Ducksalad plant response rating [2, 34]: 0
- Ducksalad plant response rating [2, 25]: 0
- Morningglory plant response rating [3, 26]: 1
- Plant response rating, Morningglory [3, 16]: 0
- Plant response rating, Morningglory [3, 27]: 0
- Morningglory plant response rating [3, 28]: 0
- Morningglory plant response rating [3, 29]: 0
- Morningglory plant response rating [3, 30]: 1
- Morningglory plant response rating [3, 31]: 1
- Plant response rating, Rice (0 to 10 scale, 0 is no effect, 10 is complete control) [4, 32]: 0
- Rice plant response rating (0 to 10 scale, 0 is no effect, 10 is complete control) [4, 33]: 0
- Rice plant response rating [4, 34]: 0
- Rice plant response rating [4, 25]: 0

SMILES: CCN(C(=O)n1oc(=O)n(Cc2cccs2)c1=O)C1CCCCC1 [Compound 82]
- Giant foxtail plant response rating [1, 35]: 0
- Giant foxtail plant response rating [1, 5]: 0
- Giant foxtail plant response rating [1, 36]: 0
- Plant response rating, Giant foxtail [1, 7]: 0
- Plant response rating, Giant foxtail [1, 8]: 0
- Giant foxtail plant response rating [1, 9]: 0
- Giant foxtail plant response rating [1, 10]: 0
- Giant foxtail plant response rating [1, 21]: 0
- Ducksalad plant response rating [2, 35]: 0
- Ducksalad plant response rating [2, 13]: 0
- Ducksalad plant response rating [2, 37]: 0
- Ducksalad plant response rating [2, 15]: 0
- Morningglory plant response rating [3, 35]: 4
- Morningglory plant response rating [3, 5]: 10
- Morningglory plant response rating [3, 36]: 0
- Plant response rating, Morningglory [3, 7]: 0
- Plant response rating, Morningglory [3, 8]: 0
- Morningglory plant response rating [3, 9]: 0
- Morningglory plant response rating [3, 10]: 7
- Morningglory plant response rating [3, 21]: 10
- Rice plant response rating [4, 35]: 0
- Rice plant response rating [4, 13]: 0
- Rice plant response rating [4, 37]: 0
- Rice plant response rating [4, 15]: 0

SMILES: Cc1ccccc1-n1c(=O)on(C(=O)N(c2cc(F)ccc2F)C(C)C)c1=O [Compound 68]
- Giant foxtail plant response rating [1, 35]: 0
- Giant foxtail plant response rating [1, 5]: 0
- Giant foxtail plant response rating [1, 36]: 5
- Plant response rating, Giant foxtail [1, 7]: 9
- Plant response rating, Giant foxtail [1, 8]: 10
- Giant foxtail plant response rating [1, 9]: 10
- Giant foxtail plant response rating [1, 10]: 0
- Giant foxtail plant response rating [1, 21]: 0
- Ducksalad plant response rating [2, 35]: 0
- Ducksalad plant response rating [2, 13]: 0
- Ducksalad plant response rating [2, 37]: 0
- Ducksalad plant response rating [2, 15]: 0
- Morningglory plant response rating [3, 35]: 2
- Morningglory plant response rating [3, 5]: 2
- Morningglory plant response rating [3, 36]: 0
- Plant response rating, Morningglory [3, 7]: 0
- Plant response rating, Morningglory [3, 8]: 0
- Morningglory plant response rating [3, 9]: 0
- Morningglory plant response rating [3, 10]: 2
- Morningglory plant response rating [3, 21]: 3
- Rice plant response rating [4, 35]: 0
- Rice plant response rating [4, 13]: 0
- Rice plant response rating [4, 37]: 0
- Rice plant response rating [4, 15]: 0

SMILES: CCN(CC)C(=O)n1oc(=O)n(-c2ccc(OC(F)(F)F)cc2)c1=O [Compound 12]
- Giant foxtail plant response rating [1, 5]: 0
- Giant foxtail plant response rating [1, 6]: 0
- Plant response rating, Giant foxtail [1, 7]: 0
- Plant response rating, Giant foxtail [1, 8]: 0
- Giant foxtail plant response rating [1, 9]: 2
- Giant foxtail plant response rating [1, 10]: 0
- Giant foxtail plant response rating [1, 11]: 0
- Plant response rating, Giant foxtail [1, 12]: 8
- Ducksalad plant response rating [2, 6]: 0
- Ducksalad plant response rating [2, 13]: 0
- Ducksalad plant response rating [2, 14]: 0
- Ducksalad plant response rating [2, 15]: 0
- Morningglory plant response rating [3, 5]: 0
- Morningglory plant response rating [3, 6]: 0
- Plant response rating, Morningglory [3, 7]: 0
- Plant response rating, Morningglory [3, 8]: 0
- Morningglory plant response rating [3, 9]: 0
- Morningglory plant response rating [3, 10]: 0
- Morningglory plant response rating [3, 11]: 0
- Plant response rating, Morningglory [3, 12]: 0
- Rice plant response rating [4, 6]: 0
- Rice plant response rating [4, 13]: 0
- Rice plant response rating [4, 14]: 0
- Rice plant response rating [4, 15]: 0

SMILES: Cc1ccccc1-n1c(=O)on(C(=O)N(c2ccc(S(C)(=O)=O)cc2)C(C)C)c1=O [Compound 203]
- Giant foxtail plant response rating [1, 16]: 0
- Giant foxtail plant response rating (0 to 10 scale) [1, 38]: 0
- Giant foxtail plant response rating [1, 28]: 0
- Plant response rating, Giant foxtail [1, 17]: 0
- Giant foxtail plant response rating [1, 18]: 0
- Giant foxtail plant response rating [1, 19]: 0
- Plant response rating (0 to 10; 0 is no effect, 10 is complete control), Giant foxtail ([1]; Rate 250 g/ha, Postemergence): 0
- Giant foxtail plant response rating [1, 39]: 0
- Ducksalad plant response rating [2, 22]: 0
- Ducksalad plant response rating [2, 23]: 0
- Ducksalad plant response rating [2, 24]: 0
- Plant response rating, Ducksalad [2, 40]: 0
- Morningglory plant response rating [3, 16]: 0
- Morningglory plant response rating (0 to 10 scale) [3, 38]: 0
- Morningglory plant response rating [3, 28]: 0
- Plant response rating, Morningglory [3, 17]: 0
- Morningglory plant response rating [3, 18]: 0
- Morningglory plant response rating [3, 19]: 0
- Plant response rating (0 to 10; 0 is no effect, 10 is complete control), Morningglory ([3]; Rate 250 g/ha, Postemergence): 0
- Morningglory plant response rating [3, 39]: 0
- Rice plant response rating [4, 22]: 0
- Rice plant response rating [4, 23]: 0
- Rice plant response rating [4, 24]: 0
- Plant response rating, Rice [4, 40]: 0
